# Measurements: publication PMC9604388, “Purification and Functional Characterization of a Soluble Trehalase in Lissorhoptrus oryzophilus (Coleoptera: Curculionidae)” (Insects, 2022)
# Test system: T1, LoTRE1
# T1 construct: whole coding region incl. predicted signal peptide (1-25) by primers (ORF 1839 bp, 612 aa, 70833 Da); E. coli Rosetta (DE3), Ni-NTA; ~70 kDa
# Test: […],5-dinitrosalicylic acid assay of released glucose
# Assay type: biochemical, Lissorhoptrus oryzophilus
# Settings: PBS, pH 7.0, 50 °C, 30 min; substrate 1-10 mmol/L (Km above tested range)
compound,measurement,value
OC[C@H]1O[C@H](O[C@H]2O[C@H](CO)[C@@H](O)[C@H](O)[C@H]2O)[C@H](O)[C@@H](O)[C@@H]1O [trehalose],Km,48.6 mM
